Data reported in ChEMBL document CHEMBL1122767, “Synthesis, resolution, absolute stereochemistry, and enantioselectivity of 3',4'-dihydroxynomifensine” (J Med Chem, 1984).

How the values were obtained:
[1] = Concentration that produces 50 % displacement of specific [3H]clonidine binding to Alpha adrenergic receptor in rat brain cortical membrane preparations.; format: cell membranes
D(2) dopamine receptor = D(2) dopamine receptor (Rattus norvegicus, UniProt P61169); assay: Concentration that produces 50 % displacement of specific [3H]spiroperidol binding to rat caudate membrane preparations.
Chain of D(2) dopamine receptor (P61169 whole entry): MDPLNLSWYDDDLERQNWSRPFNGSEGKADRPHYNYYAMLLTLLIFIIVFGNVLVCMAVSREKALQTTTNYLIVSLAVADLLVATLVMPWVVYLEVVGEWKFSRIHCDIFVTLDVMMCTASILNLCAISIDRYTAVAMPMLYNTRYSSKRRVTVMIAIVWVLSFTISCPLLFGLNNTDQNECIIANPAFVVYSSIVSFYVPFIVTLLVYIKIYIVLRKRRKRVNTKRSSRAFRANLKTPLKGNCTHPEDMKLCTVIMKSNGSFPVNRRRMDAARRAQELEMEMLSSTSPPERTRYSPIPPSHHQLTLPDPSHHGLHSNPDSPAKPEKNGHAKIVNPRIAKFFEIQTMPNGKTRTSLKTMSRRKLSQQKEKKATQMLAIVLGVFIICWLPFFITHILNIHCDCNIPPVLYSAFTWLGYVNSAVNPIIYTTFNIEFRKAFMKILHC

[2] = biological target: T1, cyclic AMP phosphoprotein (Rattus norvegicus, UniProt Q712U5); assay: Effective concentration that gives maximal stimulation of cyclic AMP production over the concentration range tested; b=Inactive; format: functional
T1 sequence (Q712U5 whole entry): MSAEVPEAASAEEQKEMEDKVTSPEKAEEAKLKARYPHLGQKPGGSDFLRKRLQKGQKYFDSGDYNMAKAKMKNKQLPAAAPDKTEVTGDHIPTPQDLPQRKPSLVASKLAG

Compound | IC50 [1] [µM] | IC50 (D(2) dopamine receptor) [µM] | EC50 [2]
NCCc1ccc(O)c(O)c1 [DOPAMINE] | 0.061 | – | –
CN1Cc2c(N)cccc2[C@@H](c2ccc(O)c(O)c2)C1 | 27.7 | 99.1 | Not Active
CN1Cc2c(N)cccc2C(c2ccc(O)c(O)c2)C1 (stereo not drawn) | 1.39 | 92 | –
CN1Cc2c(N)cccc2[C@H](c2ccc(O)c(O)c2)C1 | 0.6 | 85.8 | –
